The source of these data is PubChem BioAssay (NCI).

What all share (test): growth of human tumour cells (NCI), 48 h
The test system of experiment [1] is ACHN renal.
Experiment [2] has as its system CCRF-CEM leukemia.
Experiment [3] deals with OVCAR-3 ovarian.
In experiment [4] the test system is IGROV1 ovarian.
The test system of experiment [5] is SK-OV-3 ovarian.
The test system of experiment [6] is UO-31 renal.
The test system of experiment [7] is SN12C renal.
The test system of experiment [8] is EKVX NSCLC.
Experiment [9] has as its system NCI-H226 lung.
The subject of experiment [10] is SR leukemia.

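Where inhibition never reached the appropriate level, the endpoint shown equals the highest concentration tested. Otherwise, values were interpolated linearly from a five-concentration, 48-hour dose response in 96-well plates. GI50 is the concentration that inhibits growth by half. TGI denotes the concentration required for complete inhibition of growth.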

With `O=C1NC(NNc2ccccc2)=N/C1=C\c1ccco1`, the TGI was 25.9 µM in [1]; more than 100 µM in experiment [2]; 38.1 µM in experiment [3]; 34 µM in [4]; more than 100 µM in experiment [5]; 55.2 µM in experiment [6]. The TGI was determined as 49.9 µM in experiment [7] and 46.7 µM in [8].
Turning to `CCOC(=O)NC(C(F)(F)F)(C(F)(F)F)P(=O)(OCC)OCC`, the TGI in experiment [1], in [2], in experiment [3], in experiment [4], in experiment [5] and in experiment [9] was more than 100 µM throughout. Further, the TGI in experiment [6] is 85.5 µM; in experiment [7], more than 100 µM.
For `Cn1cc(-c2csc(-c3cn(CCCN4CCCCC4)c4ccc(Br)cc34)n2)c2cccnc21`, the GI50 was 1.65 µM in [1]; 1.8 µM in [3]; 1.63 µM in experiment [4]; 1.92 µM in experiment [5]; 2.07 µM in experiment [9]; 1.51 µM in experiment [6]. In addition, the GI50 in experiment [7] is 1.74 µM. Moreover, the TGI amounted to 3 µM in [1]; 3.38 µM in experiment [3]; 3.33 µM in [4]; 3.9 µM in experiment [5]; 4.84 µM in experiment [9]; 2.89 µM in experiment [6]. Besides, in [7], the TGI came to 3.31 µM.
On to `CN(C)C1(N(C)C)Oc2c(c(=O)n(C)c(=O)n2C)C(c2ccc(F)cc2)C1(F)F` (stereo not drawn), for which the TGI in experiment [1], in experiment [2], in [3], in [5], in experiment [9] and in experiment [6] was more than 100 µM each time. This molecule also returned a TGI in [8] of more than 100 µM.
With `O=C(NCCCN1CCN(CCCNC(=O)c2cc(-c3ccccc3)nc3ccccc23)CC1)c1cc(-c2ccccc2)nc2ccccc12`, the TGI in [1] is 28.8 µM; in experiment [2], more than 56.4 µM; in [3], more than 53.6 µM; in [4] it was 27.8 µM; in experiment [5], 40.2 µM; in [9], more than 65.3 µM. In addition, the TGI in [6] is more than 42.2 µM; in [7], 43 µM; in experiment [8] it was 51.5 µM.
Take `CC(C)(Cl)C(Cl)CC/C(CBr)=C(\Cl)CBr` (stereo not drawn): the TGI in experiment [1] was 13.9 µM; in experiment [2] it was 0.325 µM; in experiment [3], 6.81 µM; in experiment [4], 3.66 µM; in experiment [5], 13.5 µM; in [9], 5.28 µM. For the same molecule, the TGI was 8.86 µM in [6], 6.15 µM in experiment [7] and 30.1 µM in [8].
As to `[O-][N+]1=C(c2ccccc2)/C(=C2/C(c3ccccc3)=[N+]([O-])c3ccccc32)Cc2ccccc21`, the TGI is 50.6 µM in [1]; 60.1 µM in [2]; 38.1 µM in [3]; 35.2 µM in experiment [4]; more than 100 µM in experiment [5]; 42.2 µM in [9]. Besides, the figures for the TGI in experiment [6], in [7] and in [8] were 28.5 µM, 32.4 µM and 48.5 µM, respectively.
Regarding `CC(=O)c1sc2c(c1OC(=O)c1ccccc1)c(=O)n(-c1ccccc1)c(=S)n2-c1ccccc1`, the TGI was 12.6 µM in experiment [1]; 5.83 µM in experiment [2]; more than 62.5 µM in experiment [3]; 54.5 µM in experiment [4]; more than 49.9 µM in experiment [5]; 8.33 µM in experiment [9]. Besides, the TGI was 12.6 µM in experiment [6], more than 42.5 µM in experiment [7] and 69.1 µM in experiment [8].
For `O=C(Cn1c2ccc(Br)cc2c2nc3ccccc3nc21)N1CCOCC1`, the TGI in experiment [1], in experiment [2], in [3], in experiment [4], in experiment [5] and in experiment [9] was more than 100 µM each time. For the same molecule, the TGI in experiment [6] and in experiment [7] was more than 100 µM in each case.
On to `CC(C)OP(=O)(OC(C)C)/C(=N/Nc1ccc([N+](=O)[O-])cc1)NNC(=O)c1ccccc1`, for which the TGI in [1] is more than 100 µM; in experiment [2] it was 55.4 µM; in experiment [3] it was more than 100 µM; in experiment [9], more than 100 µM; in [6], more than 100 µM; in [7], more than 100 µM. Further, the values for the TGI in experiment [8] and in experiment [10] were more than 100 µM and 50.9 µM, respectively.
Turning to `CCOC(=O)c1cc(C2CCN(Cc3ccccc3)C2=O)c(C(=O)/C=C(/C)N)[nH]1` (stereo not drawn), the TGI in [1], in experiment [3], in experiment [4], in experiment [5], in experiment [6] and in experiment [8] was more than 100 µM each time.
Take `O=C(O)CCC1(CCC(=O)O)CCCCCCCCC(CCC(=O)O)(CCC(=O)O)C(=O)C1=O`: the TGI in experiment [1], in [3], in [5], in [9], in experiment [7] and in experiment [8] was more than 100 µM in each case. This molecule also returned a TGI in experiment [10] of more than 100 µM.
`CC(c1ccccc1)n1c2ccccc2c2c(N)ncnc21` (stereo not drawn): the TGI was 31.9 µM in [1]; more than 100 µM in experiment [2]; 30.6 µM in experiment [3]; 38.2 µM in experiment [4]; 29.5 µM in experiment [5]; 22.2 µM in experiment [6]. For the same molecule, the TGI in experiment [8] turned out to be 24.7 µM; in experiment [10], 56.7 µM.
As for `COC(=O)N1C2C(C[C@@]1(C)C(=O)OC)c1ccccc1N2S(=O)(=O)c1ccccc1` (stereo partly drawn), the TGI in [1], in [2], in experiment [3], in experiment [4], in [5] and in experiment [9] was more than 100 µM throughout. Besides, the TGI in experiment [6], in [8] and in experiment [10] was more than 100 µM in each case.
For `CCCC1(N2C(=O)c3ccc4c5c(ccc(c35)C2=O)N(C2(CCC)CCCCC2)C4=O)CCCCC1`, the TGI in experiment [1], in experiment [3], in experiment [5], in experiment [6] and in experiment [7] was more than 100 µM throughout.
Regarding `Cc1ccc2nc(-c3nccn3C)cc(C(=O)NC(C)CN(C)C)c2c1` (stereo not drawn), the TGI in experiment [1], in experiment [4], in [9], in experiment [6], in experiment [7] and in experiment [8] was more than 100 µM in each case.
Turning to `Cc1cnc2c(c1)C(=O)N(c1ccc(Br)cc1)S2(=O)=O`, the TGI in experiment [1], in experiment [2], in [3], in experiment [4], in [5] and in experiment [9] was more than 100 µM in each case. Further, the TGI in experiment [6], in [7] and in experiment [8] was more than 100 µM in each case.
Take `COC1=C(OC)C(=O)C(C/C=C/c2c(Cl)nc3sccn23)=C(C)C1=O`: the TGI in experiment [1] came out at 36.1 µM; in experiment [2], 41.1 µM; in experiment [3] it was 29.9 µM; in experiment [4], 35.9 µM; in experiment [5], 33.8 µM; in experiment [6], 38.8 µM. In addition, the TGI in [7] was 31.7 µM; in experiment [8], 25.1 µM; in experiment [10], 66 µM.
For the molecule `Clc1ccc2c(c1)CC1C[N+]3=C(CCCCC3)C1=C2` (stereo not drawn), the TGI in [1], in experiment [2], in [3], in [4], in [5] and in experiment [9] was more than 100 µM each time. For the same molecule, the TGI in experiment [6], in [7] and in experiment [8] was more than 100 µM in each case.
`Cc1nnc(N)nc1C/C=C/C(C)Sc1ccc(Cl)cc1` (stereo not drawn): the TGI came to 29 µM in [1]; 26.4 µM in experiment [2]; 13.5 µM in experiment [4]; 21.9 µM in [5]; 7.69 µM in [9]; 19.4 µM in experiment [6]. For the same molecule, the TGI in experiment [7] was more than 80.6 µM; in experiment [8] it was 23.3 µM.
Turning to `Cc1cc2nc3c(C#N)c4c(c(Cl)n3c2cc1C)CCC4`, the TGI in [1] was 55.9 µM; in experiment [3] it was 49.7 µM; in [5], more than 100 µM; in experiment [9], more than 100 µM; in experiment [7] it was 33.8 µM; in experiment [8], more than 100 µM.
For the molecule `NC1C2C=CC(C2)C1C(=O)O` (stereo not drawn), the TGI in experiment [1], in [2], in [3], in experiment [4], in [5] and in [9] was more than 100 µM each time. The TGI in experiment [6], in [7] and in experiment [8] was more than 100 µM in each case.
For the molecule `CCCc1cn2c(/C=N/N=C(N)N)c(-c3ccc([N+](=O)[O-])cc3)nc2s1`, the TGI was determined as 2.88 µM in experiment [1]; 1.3 µM in [2]; 0.377 µM in experiment [3]; 3.05 µM in experiment [4]; 2.92 µM in experiment [5]; 3.33 µM in experiment [9]. In addition, the TGI in [7] came to 3.06 µM; in experiment [8] it was 3.62 µM.
Take `COc1c(N2CCCCC2)c2c(=O)c3ccccc3oc2c2c3ccccc3n(C)c12`: the TGI in [1], in [2], in [3], in [5], in [9] and in experiment [6] was more than 100 µM in each case. Also, the TGI in experiment [7] and in [8] was more than 100 µM each time.
`O=C(/C=C/c1ccc(Cl)cc1)c1nc2ccccc2[nH]1`: the TGI was more than 100 µM in [1]; 16.6 µM in experiment [2]; 49.1 µM in [3]; more than 100 µM in [4]; more than 100 µM in experiment [5]; more than 100 µM in [9]. Moreover, the TGI is 24 µM in experiment [6], more than 100 µM in experiment [7] and 83.3 µM in experiment [8].
Take `COc1cc(Cn2c3ccccc3c3cc(C)cc(OC)c32)cc2c1[nH]c1ccccc12`: the GI50 in experiment [1] was 12.2 µM; in experiment [2] it was 12 µM; in [9], 17 µM; in experiment [10] it was 16.6 µM. The TGI in experiment [1], in [2], in experiment [3], in experiment [4], in experiment [5] and in [9] was more than 25 µM throughout. For the same molecule, the TGI in experiment [6], in [7] and in experiment [10] was more than 25 µM in each case.
Turning to `C=C1C(=O)O[C@H]2C1C[C@H](O)/C(C)=C/CC[C@@]1(C)O[C@H]21` (stereo partly drawn), the TGI in [1] was 22 µM; in experiment [2], 13.6 µM; in [4], 28.3 µM; in experiment [5], more than 100 µM; in [6], 28.6 µM; in experiment [7], 33.8 µM. Besides, the TGI in experiment [8] was determined as 40.3 µM; in [10], 30.9 µM.
With `COc1cc2c(c(OC)c1)C(=O)C(=O)C(CC1(C)OCCCO1)=C2`, the TGI amounted to 17.9 µM in experiment [1]; 4.72 µM in experiment [2]; 10.5 µM in experiment [3]; 27.8 µM in experiment [4]; 30.2 µM in experiment [5]; 19.6 µM in experiment [9]. Besides, the results for the TGI in experiment [6], in experiment [7] and in experiment [8] were 25.6 µM, 26.8 µM and 29.6 µM, respectively.
On to `CC(=O)Oc1ccc(C)c2c1[C@H]1CC[C@]3(C)[C@@H](OC(C)=O)CC[C@H]3[C@@H]1CC2`, for which the TGI in experiment [1] was 29.8 µM; in [2], 55.2 µM; in experiment [3] it was 33.1 µM; in experiment [4], 36.4 µM; in [9], 54.8 µM; in experiment [6] it was more than 100 µM. Moreover, the TGI in experiment [7] is 39 µM; in [8] it was 30.9 µM; in [10] it was more than 100 µM.
For the molecule `O=C(O)c1ccc(Nc2nc3ccc(C(F)(F)F)cc3nc2-c2ccccc2)cc1`, the TGI is more than 100 µM in [1]; more than 100 µM in [2]; 72.6 µM in experiment [3]; more than 100 µM in experiment [4]; more than 100 µM in experiment [9]; 55.1 µM in experiment [6]. In addition, the TGI in experiment [7], in experiment [8] and in [10] was more than 100 µM each time.
